This note sets out measurements from PubChem BioAssay AID1919015 (Molecular Pharmacology Branch, DTP, NCI, 2023).

For the test, the system named is OVCAR-5 complex spheroids with HUVEC/MSC, viability, % test/control. Briefly: Anticancer human tumor OVCAR-5 cell line growth inhibition [AhR].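 On all read-outs here: spheroids exposed to compounds for 7 days.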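 On viability, T/C: 100% = DMSO vehicle control wells.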 The conditions noted are these: for viability, T/C: stronger effect = lower value. The method, boiled down: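 Complex tumor spheroids co-cultured with HUVEC and human MSC stroma; AhR antagonists tested in combination with standard-of-care and investigational agents. Top concentration at or near clinical Cmax (else 10 microM), half-log dilutions; growth expressed as percent test/control.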

[1] abbreviates: curve of first compound, second compound 0.1 µM.
[2] abbreviates: curve of first compound, second compound 0.316 µM.
Setting [3] is: curve of first compound, second compound 1 µM.
Setting [4] is: curve of first compound, second compound 3.16 µM.
[5] abbreviates: curve of first compound, second compound 10 µM.
[6] abbreviates: second compound 0.1 µM, first compound 0.000949 µM.
Where [7] appears, read: second compound 0.1 µM, first compound 0.003 µM.
[8] abbreviates: second compound 0.1 µM, first compound 0.00949 µM.
The mark [9] stands for this setting: second compound 0.1 µM, first compound 0.03 µM.
[10] abbreviates: second compound 0.1 µM, first compound 0.0949 µM.
Where [11] appears, read: second compound 0.1 µM, first compound 0.3 µM.
Where [12] appears, read: second compound 0.316 µM, first compound 0.000949 µM.
[13] abbreviates: second compound 0.316 µM, first compound 0.003 µM.
Where [14] appears, read: second compound 0.316 µM, first compound 0.00949 µM.
Setting [15] is: second compound 0.316 µM, first compound 0.03 µM.
Setting [16] is: second compound 0.316 µM, first compound 0.0949 µM.
Where [17] appears, read: second compound 0.316 µM, first compound 0.3 µM.
Where [18] appears, read: second compound 1 µM, first compound 0.000949 µM.
[19] abbreviates: second compound 1 µM, first compound 0.003 µM.
Setting [20] is: second compound 1 µM, first compound 0.00949 µM.
The mark [21] stands for this setting: second compound 1 µM, first compound 0.03 µM.
Where [22] appears, read: second compound 1 µM, first compound 0.0949 µM.
Where [23] appears, read: second compound 1 µM, first compound 0.3 µM.
Setting [24] is: second compound 3.16 µM, first compound 0.000949 µM.
Where [25] appears, read: second compound 3.16 µM, first compound 0.003 µM.
Setting [26] is: second compound 3.16 µM, first compound 0.00949 µM.
The mark [27] stands for this setting: second compound 3.16 µM, first compound 0.03 µM.
Where [28] appears, read: second compound 3.16 µM, first compound 0.0949 µM.
Where [29] appears, read: second compound 3.16 µM, first compound 0.3 µM.
[30] abbreviates: second compound 10 µM, first compound 0.000949 µM.
Where [31] appears, read: second compound 10 µM, first compound 0.003 µM.
Where [32] appears, read: second compound 10 µM, first compound 0.00949 µM.
Where [33] appears, read: second compound 10 µM, first compound 0.03 µM.
[34] abbreviates: second compound 10 µM, first compound 0.0949 µM.
[35] abbreviates: second compound 10 µM, first compound 0.3 µM.

Several values for one entry are separate records, joined by “and”; a condition that tells them apart may be missing. Equal values may be shown once.

In general, IC50 refers to the midpoint of a concentration-inhibition curve. Broadly, the viability, T/C is the ratio of treated to control. As to `CCc1c2c(nc3ccc(O)cc13)-c1cc3c(c(=O)n1C2)COC(=O)[C@]3(O)CC` + Cc1cncc(-c2nc(NCCc3c[nH]c4ccccc34)c3ncn(C(C)C)c3n2)c1, the IC50 is 9.8 nM under setting [1]; 9.09 nM under setting [2]; 8.08 nM under setting [3]; 3.77 nM under setting [4]; less than 0.949 nM under setting [5]. Also, the viability, T/C under setting [6] is 83.8%; the viability, T/C under setting [7] was 59%; the viability, T/C under setting [8] was 46.3%; the viability, T/C under setting [9] is 44.8%; the viability, T/C under setting [10] is 23.4%; the viability, T/C under setting [11] was 9.85%. For the same compound, the viability, T/C under setting [12] is 80.1%; the viability, T/C under setting [13] is 57.1%; the viability, T/C under setting [14] was 47.4%; the viability, T/C under setting [15] is 42.3%; the viability, T/C under setting [16] was 22.8%; the viability, T/C under setting [17] is 9.22%. Besides, the viability, T/C by setting is: under setting [18], 73.1%; under setting [19], 51.4%; under setting [20], 50.7%; under setting [21], 42.3%; under setting [22], 21.5%; under setting [23], 9.57%. The viability, T/C reads like this: under setting [24], 56.8%; under setting [25], 43.8%; under setting [26], 48.4%; under setting [27], 40.2%; under setting [28], 21.9%; under setting [29], 8.5%. Besides, the viability, T/C is, setting by setting: under setting [30], 4.99%; under setting [31], 5.37%; under setting [32], 9.12%; under setting [33], 7.96%; under setting [34], 4.98%; under setting [35], 2.23%.
Turning to `CCc1c2c(nc3ccc(O)cc13)-c1cc3c(c(=O)n1C2)COC(=O)[C@]3(O)CC` + CC(CO)NC(=O)c1cc(-c2ccc(Cl)cc2)nn(-c2cnn(C)c2)c1=O, the concentration for half-maximal inhibition (IC50) is, setting by setting: under setting [1], 6.63 nM; under setting [2], 5.74 nM; under setting [3], 7.31 nM; under setting [4], 5.58 nM; under setting [5], 10.6 nM. Moreover, the viability, T/C under setting [6] is 77.5%; the viability, T/C under setting [7] is 55.8%; the viability, T/C under setting [8] was 42.6%; the viability, T/C under setting [9] is 37.8%; the viability, T/C under setting [10] is 17.8%; the viability, T/C under setting [11] was 6.98%. The viability, T/C was 76% under setting [12]; 54% under setting [13]; 43.9% under setting [14]; 32.8% under setting [15]; 18.7% under setting [16]; 6.72% under setting [17]. Further, the viability, T/C runs as follows: under setting [18], 70.5%; under setting [19], 54.6%; under setting [20], 49.7%; under setting [21], 35.9%; under setting [22], 15.5%; under setting [23], 7.35%. For the same compound, the viability, T/C under setting [24] was 56.8%; the viability, T/C under setting [25] was 47.6%; the viability, T/C under setting [26] is 48.5%; the viability, T/C under setting [27] is 35.5%; the viability, T/C under setting [28] was 14.7%; the viability, T/C under setting [29] is 6.85%. Further, the viability, T/C under setting [30] is 51.7%; the viability, T/C under setting [31] was 51.4%; the viability, T/C under setting [32] is 57.5%; the viability, T/C under setting [33] is 34.5%; the viability, T/C under setting [34] is 17.7%; the viability, T/C under setting [35] was 7.22%.
For the compound `Nc1ccn(C2OC(CO)C(O)C2(F)F)c(=O)n1` (stereo unspecified), the viability, T/C reads like this: (compound 0.0316 µM) 32.6% and 27.9% and 33.8%; (compound 0.1 µM) 30.9% and 25.9% and 30.5%; (compound 0.316 µM) 31.4% and 27.5% and 30.8%; (compound 1 µM) 31.7% and 27.9% and 31.9%; (compound 3.16 µM) 32.3% and 29.7% and 33.2%; (compound 10 µM) 31.7% and 27.8% and 29.7%. Besides, for the setting “curve of compound”, the IC50 was less than 31.6 nM.
As for `COc1cc(C2c3cc4c(cc3C(OC3OC5COC(C)OC5C(O)C3O)C3COC(=O)C23)OCO4)cc(OC)c1O` (stereo unspecified) + CC(CO)NC(=O)c1cc(-c2ccc(Cl)cc2)nn(-c2cnn(C)c2)c1=O, the IC50 by setting is: under setting [1], 3960 nM; under setting [2], 3880 nM; under setting [3], 5440 nM; under setting [4], 3920 nM; under setting [5], 3100 nM. Further, the viability, T/C is, setting by setting: (second compound 0.1 µM, first compound 0.0316 µM) 106%; (second compound 0.1 µM, first compound 0.1 µM) 106%; (second compound 0.1 µM, first compound 0.316 µM) 100%; (second compound 0.1 µM, first compound 1 µM) 82.8%; (second compound 0.1 µM, first compound 3.16 µM) 52.7%; (second compound 0.1 µM, first compound 10 µM) 38.1%. Further, the viability, T/C is, setting by setting: (second compound 0.316 µM, first compound 0.0316 µM) 105%; (second compound 0.316 µM, first compound 0.1 µM) 109%; (second compound 0.316 µM, first compound 0.316 µM) 101%; (second compound 0.316 µM, first compound 1 µM) 86%; (second compound 0.316 µM, first compound 3.16 µM) 52.7%; (second compound 0.316 µM, first compound 10 µM) 36.6%. Moreover, the viability, T/C runs as follows: (second compound 1 µM, first compound 0.0316 µM) 115%; (second compound 1 µM, first compound 0.1 µM) 112%; (second compound 1 µM, first compound 0.316 µM) 107%; (second compound 1 µM, first compound 1 µM) 84.9%; (second compound 1 µM, first compound 3.16 µM) 59.2%; (second compound 1 µM, first compound 10 µM) 40.3%. For the same compound, the viability, T/C (second compound 3.16 µM, first compound 0.0316 µM) was 98.9%; the viability, T/C (second compound 3.16 µM, first compound 0.1 µM) is 102%; the viability, T/C (second compound 3.16 µM, first compound 0.316 µM) is 98%; the viability, T/C (second compound 3.16 µM, first compound 1 µM) was 71.4%; the viability, T/C (second compound 3.16 µM, first compound 3.16 µM) is 56.2%; the viability, T/C (second compound 3.16 µM, first compound 10 µM) is 37.4%. Also, the viability, T/C is 96.1% (second compound 10 µM, first compound 0.0316 µM); 97.1% (second compound 10 µM, first compound 0.1 µM); 82.6% (second compound 10 µM, first compound 0.316 µM); 63.5% (second compound 10 µM, first compound 1 µM); 52.7% (second compound 10 µM, first compound 3.16 µM); 40.1% (second compound 10 µM, first compound 10 µM).
On to `CC(C)CC(NC(=O)C(Cc1ccccc1)NC(=O)c1cnccn1)B(O)O` (stereo unspecified), for which the viability, T/C was 99.2% and 101% and 95.8% (compound 0.000949 µM); 99.8% and 102% and 100% (compound 0.003 µM); 100% and 96.3% and 85.5% (compound 0.00949 µM); 78.9% and 69.3% and 39% (compound 0.03 µM); 36% and 27.6% and 18% (compound 0.0949 µM); 24.7% and 18.1% and 11.4% (compound 0.3 µM). Also, the IC50 (curve of compound) was 64.9 nM and 51 nM and 23.1 nM.
For the compound `CC1COCCN1c1cc(-c2ccnn2C)c2ccnc(-c3ccn[nH]3)c2n1` (stereo unspecified), the viability, T/C reads like this: (compound 0.00316 µM) 105% and 103% and 102%; (compound 0.01 µM) 103% and 101% and 105%; (compound 0.0316 µM) 102% and 95.4% and 103%; (compound 0.1 µM) 84.8% and 79.3% and 79.7%; (compound 0.316 µM) 47.3% and 38.3% and 41.1%; (compound 1 µM) 30.7% and 25.6% and 26.6%. Further, the IC50 (curve of compound) was 290 nM and 229 nM and 240 nM.
